ChEMBL document CHEMBL4689842, “EUbOPEN Chemogenomics Library wave 1” (2021)

What was measured:
Fibroblast = assay: Incucyte cell viability with human fibroblast; assay type: toxicity, cell-based; details: 10 µM, compound concentration 10 uM
U2OS = assay: Incucyte cell viability with U2OS; assay type: toxicity, cell-based; details: human, 10 µM, compound concentration 10 uM
[1] = 0 h, replicate number 1, timepoint 0 hours
[2] = 0 h, replicate number 2, timepoint 0 hours
[3] = 6 h, replicate number 1, timepoint 6 hours
[4] = 6 h, replicate number 2, timepoint 6 hours
[5] = 12 h, replicate number 1, timepoint 12 hours
[6] = 12 h, replicate number 2, timepoint 12 hours
[7] = 18 h, replicate number 1, timepoint 18 hours
[8] = 24 h, replicate number 1, timepoint 24 hours
[9] = 18 h, replicate number 2, timepoint 18 hours
[10] = 24 h, replicate number 2, timepoint 24 hours

Measured: Growth Rate
Further: filed as whole numbers so only -1 and 0 and 1 occur.

Nc1c(C(=O)NCc2ccc(C(=O)NCCCC3CCCCC3)cc2)cnn1-c1ccccc1 [SR-318]
0: Fibroblast; [1] | Fibroblast; [4] | Fibroblast; [6] | Fibroblast; [7] | Fibroblast; [8] | U2OS; [2]
1: Fibroblast; [2] | Fibroblast; [3] | Fibroblast; [5] | U2OS; [3] | U2OS; [5] | U2OS; [7] | U2OS; [8]

Cc1cc(C)cc(-c2cnc3cc(Cl)c(-c4cccc(O)c4)cc3c2OCCCN)c1
0: Fibroblast; [1] | Fibroblast; [3] | Fibroblast; [5] | Fibroblast; [7] | Fibroblast; [8] | U2OS; [2] | U2OS; [3] | U2OS; [5] | U2OS; [7] | U2OS; [8]

CC(C)(O)CNc1ncc(-c2ccnc(Nc3ccnc(Cl)c3)n2)c(CC2CC2)n1
0: Fibroblast; [3] | Fibroblast; [5] | Fibroblast; [7] | Fibroblast; [8] | U2OS; [1] | U2OS; [5] | U2OS; [7] | U2OS; [8]
1: Fibroblast; [2] | Fibroblast; [4] | U2OS; [3] | U2OS; [9] | U2OS; [10]

CNc1nc(NCc2ccc(NS(C)(=O)=O)cc2Cl)cc(-c2ccccn2)n1
0: Fibroblast; [3] | Fibroblast; [5] | Fibroblast; [7] | Fibroblast; [8] | U2OS; [1] | U2OS; [3] | U2OS; [5] | U2OS; [7] | U2OS; [8]

COc1ccc(Oc2cc(NCCC(F)(F)F)c3ncc(-c4ccc(C(=O)NC5CC5)c(C)c4)n3n2)c(F)c1F [BAY-1217389]
1: Fibroblast; [2] | U2OS; [6] | U2OS; [9]
0: Fibroblast; [3] | Fibroblast; [5] | Fibroblast; [7] | Fibroblast; [8] | U2OS; [1] | U2OS; [3] | U2OS; [5] | U2OS; [7] | U2OS; [8]

COc1cc(-n2cnc3cc(-c4ccc(Cl)cc4)sc3c2=O)ccc1OCCN1CCCC1
0: Fibroblast; [3] | Fibroblast; [5] | Fibroblast; [7] | Fibroblast; [8] | U2OS; [1] | U2OS; [3] | U2OS; [5] | U2OS; [7] | U2OS; [8]

CN1CCCC(n2nc(Cc3ccc(Cl)cc3)c3ccccc3c2=O)CC1.Cl (configuration not stated) [AZELASTINE HYDROCHLORIDE]
1: Fibroblast; [5] | Fibroblast; [7] | U2OS; [6] | U2OS; [7] | U2OS; [8]
0: Fibroblast; [1] | Fibroblast; [4] | Fibroblast; [6] | Fibroblast; [9] | Fibroblast; [8] | U2OS; [1] | U2OS; [4]

CN(C)CC#Cc1ccc(OCCCc2sc(N3CCc4cccc(C(=O)Nc5nc6ccccc6s5)c4C3)nc2C(=O)O)c(F)c1 [A-1155463]
0: Fibroblast; [1] | Fibroblast; [3] | Fibroblast; [5] | Fibroblast; [7] | Fibroblast; [8] | U2OS; [1] | U2OS; [3] | U2OS; [5] | U2OS; [7] | U2OS; [8]
1: U2OS; [6]

CC(C)NCC(O)COc1ccc(CCOCC2CC2)cc1.Cl (configuration not stated) [BETAXOLOL HYDROCHLORIDE]
0: Fibroblast; [1] | Fibroblast; [3] | Fibroblast; [5] | Fibroblast; [7] | Fibroblast; [8] | U2OS; [1]
1: U2OS; [7] | U2OS; [8]

Cc1[nH]c(/C=C2\C(=O)Nc3ccc(S(=O)(=O)N(C)c4cccc(Cl)c4)cc32)c(C)c1C(=O)N1CCN(C)CC1
0: Fibroblast; [1] | U2OS; [2] | U2OS; [5] | U2OS; [7] | U2OS; [8]
1: Fibroblast; [7] | Fibroblast; [8] | U2OS; [6]

CN1CCC[C@@H]1CCO[C@](C)(c1ccccc1)c1ccc(Cl)cc1.O=C(O)/C=C/C(=O)O [CLEMASTINE FUMARATE]
1: Fibroblast; [3]
0: Fibroblast; [1] | Fibroblast; [4] | Fibroblast; [5] | Fibroblast; [7] | Fibroblast; [8] | U2OS; [4] | U2OS; [5] | U2OS; [7] | U2OS; [8]

NC(=O)Nc1cc(-c2cccc(F)c2)sc1C(=O)N[C@H]1CCCNC1 [AZD-7762]
1: Fibroblast; [3] | Fibroblast; [9]
0: Fibroblast; [2] | Fibroblast; [5] | Fibroblast; [7] | Fibroblast; [8] | U2OS; [1] | U2OS; [3] | U2OS; [5] | U2OS; [7] | U2OS; [8]

Cn1cc(-c2[nH]c3cc(NC(=O)[C@H](N)C4CCCCC4)cc4c3c2C=NNC4=O)cn1
0: Fibroblast; [1] | U2OS; [1] | U2OS; [3] | U2OS; [5] | U2OS; [7] | U2OS; [8]
1: Fibroblast; [7] | Fibroblast; [8] | U2OS; [4] | U2OS; [6]

COc1cc2nccc(Oc3ccc(NC(=O)Nc4cc(C)on4)c(Cl)c3)c2cc1OC.O
1: Fibroblast; [4] | U2OS; [1]
0: Fibroblast; [1] | Fibroblast; [3] | Fibroblast; [5] | Fibroblast; [7] | Fibroblast; [8] | U2OS; [2] | U2OS; [3] | U2OS; [5] | U2OS; [7] | U2OS; [8]

C[C@@H](NCCCc1cccc(C(F)(F)F)c1)c1cccc2ccccc12.Cl [CINACALCET HYDROCHLORIDE]
0: Fibroblast; [3] | Fibroblast; [5] | Fibroblast; [7] | Fibroblast; [8] | U2OS; [4] | U2OS; [6] | U2OS; [7] | U2OS; [8]
1: Fibroblast; [1] | U2OS; [5]

OC1(c2ccc(Cl)cc2)CCN(Cc2c[nH]c3ccccc23)CC1
0: Fibroblast; [1] | Fibroblast; [3] | Fibroblast; [5] | Fibroblast; [7] | Fibroblast; [8] | U2OS; [4] | U2OS; [5] | U2OS; [7] | U2OS; [8]

CN1C(=O)c2sccc2N(C)c2nc(Nc3ccc(S(N)(=O)=O)cc3)ncc21
1: Fibroblast; [3] | Fibroblast; [6] | Fibroblast; [10]
0: Fibroblast; [1] | Fibroblast; [4] | Fibroblast; [5] | Fibroblast; [7] | Fibroblast; [8] | U2OS; [2] | U2OS; [3] | U2OS; [5] | U2OS; [7] | U2OS; [8]

CN1CCN(c2ccc(OC(F)(F)F)c(Nc3ncc4c(n3)-c3c(c(C(N)=O)nn3CCO)CC4)c2)CC1 [ONVANSERTIB]
0: Fibroblast; [3] | Fibroblast; [5] | Fibroblast; [7] | Fibroblast; [8] | U2OS; [1] | U2OS; [3] | U2OS; [5] | U2OS; [7] | U2OS; [8]

CC(C)C(=O)Nc1n[nH]c2cc(-c3cccc(NS(=O)(=O)C4CC4)c3)ccc12
0: Fibroblast; [3] | Fibroblast; [5] | Fibroblast; [7] | Fibroblast; [8] | U2OS; [1] | U2OS; [3] | U2OS; [5] | U2OS; [7] | U2OS; [8]
1: Fibroblast; [1]

Cn1cncc1[C@@](O)(COc1ccc(C#N)cc1-c1ccc(OC(F)(F)F)cc1)c1ccc(C#N)cc1 [A-108]
1: Fibroblast; [1] | U2OS; [5]
0: Fibroblast; [3] | Fibroblast; [5] | Fibroblast; [7] | Fibroblast; [8] | U2OS; [1] | U2OS; [3] | U2OS; [7] | U2OS; [8]

CCOCCn1cc(C(=O)Nc2ccc(-n3nc(-c4cccnc4)cc3C(F)(F)F)cn2)ccc1=O [BI 1935]
1: Fibroblast; [3] | Fibroblast; [6] | Fibroblast; [10] | U2OS; [10]
0: Fibroblast; [2] | Fibroblast; [5] | Fibroblast; [7] | Fibroblast; [8] | U2OS; [1] | U2OS; [3] | U2OS; [5] | U2OS; [7] | U2OS; [8]

CN(C)C(=O)N[C@H]1CC[C@H](CCN2CCN(c3cccc(Cl)c3Cl)CC2)CC1.Cl [CARIPRAZINE HYDROCHLORIDE]
1: Fibroblast; [7] | Fibroblast; [8] | U2OS; [1] | U2OS; [5] | U2OS; [7] | U2OS; [8]
0: Fibroblast; [1] | Fibroblast; [3] | Fibroblast; [5] | Fibroblast; [9] | Fibroblast; [10] | U2OS; [3]

Cc1csc2c(N[C@@H](C)CN3CCN(S(=O)(=O)c4ccc(Cl)c(Cl)c4)CC3)ncnc12
0: Fibroblast; [1] | Fibroblast; [4] | Fibroblast; [6] | Fibroblast; [7] | Fibroblast; [8] | U2OS; [1] | U2OS; [6] | U2OS; [7] | U2OS; [8]
1: Fibroblast; [5] | U2OS; [4] | U2OS; [5]

CCN(CC)CCCCNc1ncc2cc(-c3cc(OC)cc(OC)c3)c(NC(=O)NC(C)(C)C)nc2n1 [PD-173074]
0: Fibroblast; [2] | Fibroblast; [5] | Fibroblast; [7] | Fibroblast; [8] | U2OS; [2] | U2OS; [3] | U2OS; [5] | U2OS; [7] | U2OS; [8]
1: Fibroblast; [1] | Fibroblast; [3] | U2OS; [1] | U2OS; [4] | U2OS; [6] | U2OS; [9]

O=C(NCCCC1CCCCC1)c1ccc(CNC(=O)c2cnn(-c3ccccc3)c2C(F)(F)F)cc1 [SR-321]
0: Fibroblast; [4] | Fibroblast; [6] | U2OS; [1] | U2OS; [4]
1: Fibroblast; [1] | Fibroblast; [3] | Fibroblast; [5] | Fibroblast; [7] | Fibroblast; [8] | U2OS; [3] | U2OS; [5] | U2OS; [7] | U2OS; [8]

CNCc1ccccc1-c1csc([C@H](C)Nc2nc(C)nc3cc(OC)c(OC)cc23)c1 [BAY-294]
0: Fibroblast; [3] | Fibroblast; [5] | Fibroblast; [7] | Fibroblast; [8] | U2OS; [1] | U2OS; [3] | U2OS; [5] | U2OS; [7] | U2OS; [8]

Cl.N#Cc1ccc2[nH]cc(CCCCN3CCN(c4ccc5oc(C(N)=O)cc5c4)CC3)c2c1 [VILAZODONE HYDROCHLORIDE]
1: Fibroblast; [5] | U2OS; [4] | U2OS; [5]
0: Fibroblast; [1] | Fibroblast; [4] | Fibroblast; [6] | Fibroblast; [7] | Fibroblast; [8] | U2OS; [1] | U2OS; [6] | U2OS; [7] | U2OS; [8]

C=CC(=O)Nc1cccc(C(=O)Nc2ccc(Nc3cc(-c4[nH]c(SC)nc4C)ccn3)cc2)c1
0: Fibroblast; [1] | Fibroblast; [5] | U2OS; [1] | U2OS; [3] | U2OS; [5] | U2OS; [7] | U2OS; [8]
1: Fibroblast; [4] | Fibroblast; [6] | Fibroblast; [7] | Fibroblast; [8] | U2OS; [2]
